Assay results from US20260193271A1, “PAN-KRAS INHIBITOR COMPOUND” (ADLAI NORTYE BIOPHARMA CO., LTD., priority 2022, published 2026).

Columns and labels:
AsPC-1 (G12D) = test: In vitro cell proliferation inhibition test (CellTiter-Glo), AsPC-1; type: cell-based; details: Homo sapiens, ASPC1, AsPC-1 pancreas cell line, KRAS (p.G12D), 72 h co-incubation
Method in brief: (§1)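 Cells were seeded at 1000-5000/well by doubling time and cultured overnight at 37 °C, 5% CO2. They were then exposed for 72 h to 10-point, 3-fold compound dilutions (final top 10 μM), and viability was read by CellTiter-Glo luminescence. IC50 came from normalized signals fitted by four-parameter regression.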

SW480 (G12V) = test: In vitro cell proliferation inhibition test (CellTiter-Glo), SW480; type: cell-based; details: Homo sapiens, SW480 colon cell line, KRAS (p.G12V), 72 h co-incubation
Method in brief: as §1

Compound	IC50 (AsPC-1 (G12D))	IC50 (SW480 (G12V))
CCn1c(-c2cc(-c3cnc(OC)nc3)cnc2[C@H](C)OC)c2c3cc(ccc31)-c1csc(n1)C[C@H](NC(=O)[C@H]1C[C@@H]1C)C(=O)N1CCC[C@H](N1)C(=O)OCC(C)(C)C2 (atropisomer, axis not shown) [Compound 57, (1S,2S)-N-((6^3S,4S,Z)-1^1-ethyl-1^2-(2-((S)-1-methoxyethyl)-5-(2-methoxypyrimidin-5-yl)pyridin-3-yl)-10,10-dimethyl-5,7-dioxo-6^1,6^2,6^3,6^4,6^5,6^6-hexahydro-1H-8-oxa-2(4,2)-thiazola-1(5,3)-indola-6(1,3)-pyridazinacycloundecaphane-4-yl)-2-methylcyclopropane-1-carboxamide]	5.6 nM	4.6 nM
CCn1c(-c2cc(-c3cnc(CN4CCN(CCOC)CC4)nc3)cnc2[C@H](C)OC)c2c3cc(ccc31)-c1csc(n1)C[C@H](NC(=O)[C@H]1C[C@@H]1C)C(=O)N1CCC[C@H](N1)C(=O)OCC(C)(C)C2 (atropisomer, axis not shown) [Compound 58, (1S,2S)-N-((6^3S,4S,Z)-1^1-ethyl-1^2-(2-((S)-1-methoxyethyl)-5-(2-((4-(2-methoxyethyl)piperazin-1-yl)methyl)pyrimidin-5-yl)pyridin-3-yl)-10,10-dimethyl-5,7-dioxo-6^1,6^2,6^3,6^4,6^5,6^6-hexahydro-1^1H-8-oxa-2(4,2)-thiazola-1(5,3)-indola-6(1,3)-pyridazinacycloundecaphane-4-yl)-2-methylcyclopropane-1-carboximide]	68 nM	30 nM
CCn1c(-c2cc(-c3cnc(N(C)C)nc3)cnc2[C@H](C)OC)c2c3cc(ccc31)-c1csc(n1)C[C@H](NC(=O)[C@H]1C[C@@H]1C)C(=O)N1CCC[C@H](N1)C(=O)OCC(C)(C)C2 (atropisomer, axis not shown) [Compound 59, (1S,2S)-N-((6^3S,4S,Z)-1^2-(5-(2-(dimethylamino)pyrimidin-5-yl)-2-((S)-1-methoxyethyl)pyridin-3-yl)-1^1-ethyl-10,10-dimethyl-5,7-dioxo-6^1,6^2,6^3,6^4,6^5,6^6-hexahydro-1^1H-8-oxa-2(4,2)-thiazola-1(5,3)-indola-6(1,3)-pyridazinacycloundecaphane-4-yl)-2-methylcyclopropane-1-carboxamide]	3 nM	6.2 nM
CCn1c(-c2cc(-c3cnc(OC4CCN(C)CC4)nc3)cnc2[C@H](C)OC)c2c3cc(ccc31)-c1csc(n1)C[C@H](NC(=O)[C@H]1C[C@@H]1C)C(=O)N1CCC[C@H](N1)C(=O)OCC(C)(C)C2 (atropisomer, axis not shown) [Compound 60, (1S,2S)-N-((6^3S,4S,Z)-1^1-ethyl-1^2-(2-((S)-1-methoxyethyl)-5-(2-((1-methylpiperidin-4-yl)oxy)pyrimidin-5-yl)pyridin-3-yl)-10,10-dimethyl-5,7-dioxo-6^1,6^2,6^3,6^4,6^5,6^6-hexahydro-1^1H-8-oxa-2(4,2)-thiazola-1(5,3)-indola-6(1,3)-pyridazinacycloundecaphane-4-yl)-2-methylcyclopropane-1-carboxamide]	1.6 nM	12 nM
CCn1c(-c2cc(-c3cnc(CN4CCN5CCOC[C@@H]5C4)nc3)cnc2[C@H](C)OC)c2c3cc(ccc31)-c1csc(n1)C[C@H](NC(=O)[C@H]1C[C@@H]1C)C(=O)N1CCC[C@H](N1)C(=O)OCC(C)(C)C2 (atropisomer, axis not shown) [Compound 61, (1S,2S)-N-((6^3S,4S,Z)-1^1-ethyl-1^2-(5-(2-(((S)-hexahydropyrazino[2,1-c][1,4]oxazin-8(1H)-yl)methyl)pyrimidin-5-yl)-2-((S)-1-methoxyethyl)pyridin-3-yl)-10,10-dimethyl-5,7-dioxo-6^1,6^2,6^3,6^4,6^5,6^6-hexahydro-1^1H-8-oxa-2(4,2)-thiazola-1(5,3)-indola-6(1,3)-pyridazinacycloundecaphane-4-yl)-2-methylcyclopropane-1-carboxamide]	19 nM	20 nM
